“And” between values parts separate entries of the source, which are not always exact repeats. Equal entries are not always repeated. Where two headings read alike, the source gives them in different places.
How the values were obtained:
[1] = biological target: T1, κ-opioid receptor (KOR) (Homo sapiens, UniProt P41145); assay: PDSP binding assay, κ-opioid
T1 construct: NIMH Psychoactive Drug Screening Program (PDSP)
Source text: (§1) Table S2. Off-target screening (to replace table later). We thank Dr. Bryan L. Roth (Univ. North Carolina at Chapel Hill) and National Institute of Mental Health's Psychoactive Drug Screening Program (Contract # HHSN-271-2008-00025-C) for screening data. Reference: Besnard et al.
(§2) Procedures: https://pdsp.unc.edu/pdspweb/content/UNC-CH%20Protocol%20Book.pdf […]
(§3) nucleosides were found at the following sites (human unless noted): 5HT1A, 5HT1B, 5HT1D, […]
(§4) β3, BZP rat brain site, D1, D2, D3, D4, D5, GABAA, H1, H2, H3, H4, M1, M2, M5, δ-opioid receptor (DOR), κ-opioid receptor (KOR), μ-opioid receptor (MOR), σ1, σ2, DAT, NET, SERT. Ki values […]
(§5) Compound # PDSP # Receptor LogKi Ki (nM)

[2] = biological target: T2, D2 (Homo sapiens, UniProt P14416); assay: PDSP binding assay, D2; conditions: Table S2, single determination
T2 construct: NIMH Psychoactive Drug Screening Program (PDSP)
Source text: as §1, §2, §3, §4, §5

[3] = test system: 45 target sites (receptors, channels, and transporters); assay: PDSP off-target binding screen at 45 target sites; parameters: species or system human; conditions: PDSP binding assays
Source text: as §1, §2, §3, §4, §5

[4] = biological target: T3, H1 (Homo sapiens, UniProt P35367); assay: PDSP binding assay, H1; conditions: Table S2, single determinations; read-out: Ki (nM), H1
T3 construct: NIMH Psychoactive Drug Screening Program (PDSP)
Source text: as §1, §2, §3, §4, §5

[5] = biological target: T4, hP2Y14R (Homo sapiens, UniProt Q15391); assay: whole-cell binding of fluorescent antagonist MRS4174 in CHO-hP2Y14R cells (flow cytometry)
T4 construct: expressed in transfected cells
T4 sequence (Q15391 1-338): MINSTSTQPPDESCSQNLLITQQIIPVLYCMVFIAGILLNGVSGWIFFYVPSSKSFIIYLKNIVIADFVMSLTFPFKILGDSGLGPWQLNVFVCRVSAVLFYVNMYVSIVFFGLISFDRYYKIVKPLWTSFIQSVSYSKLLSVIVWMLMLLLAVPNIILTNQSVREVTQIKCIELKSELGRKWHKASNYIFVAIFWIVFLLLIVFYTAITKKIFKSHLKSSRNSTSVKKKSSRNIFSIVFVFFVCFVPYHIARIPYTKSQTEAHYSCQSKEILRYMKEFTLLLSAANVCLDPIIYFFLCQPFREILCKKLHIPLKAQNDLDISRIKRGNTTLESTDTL

[6] = biological target: T5, D3 (Homo sapiens, UniProt P35462); assay: PDSP binding assay, D3; conditions: Table S2, single determination
T5 construct: NIMH Psychoactive Drug Screening Program (PDSP)
Source text: as §1, §2, §3, §4, §5

[7] = biological target: T6, 5-HT1A (Homo sapiens, UniProt P08908); assay: PDSP binding assay, 5-HT1A; conditions: Table S2, single determination
T6 construct: NIMH Psychoactive Drug Screening Program (PDSP)
Source text: as §1, §2, §3, §4, §5

T3 sequence (P35367 whole entry): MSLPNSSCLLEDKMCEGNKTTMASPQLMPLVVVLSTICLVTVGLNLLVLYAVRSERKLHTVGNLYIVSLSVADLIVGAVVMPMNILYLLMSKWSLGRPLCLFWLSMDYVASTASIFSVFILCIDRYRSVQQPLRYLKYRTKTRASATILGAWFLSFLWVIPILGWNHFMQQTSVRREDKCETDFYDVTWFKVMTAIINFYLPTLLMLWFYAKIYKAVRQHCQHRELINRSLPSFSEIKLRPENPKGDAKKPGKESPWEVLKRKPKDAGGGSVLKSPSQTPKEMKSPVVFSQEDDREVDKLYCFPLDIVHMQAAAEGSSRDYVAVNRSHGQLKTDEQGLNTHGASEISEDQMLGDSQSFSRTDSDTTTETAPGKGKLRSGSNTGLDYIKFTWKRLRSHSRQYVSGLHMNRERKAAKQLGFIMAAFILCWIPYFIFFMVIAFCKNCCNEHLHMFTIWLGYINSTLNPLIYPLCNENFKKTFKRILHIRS
T1 sequence (P41145 whole entry): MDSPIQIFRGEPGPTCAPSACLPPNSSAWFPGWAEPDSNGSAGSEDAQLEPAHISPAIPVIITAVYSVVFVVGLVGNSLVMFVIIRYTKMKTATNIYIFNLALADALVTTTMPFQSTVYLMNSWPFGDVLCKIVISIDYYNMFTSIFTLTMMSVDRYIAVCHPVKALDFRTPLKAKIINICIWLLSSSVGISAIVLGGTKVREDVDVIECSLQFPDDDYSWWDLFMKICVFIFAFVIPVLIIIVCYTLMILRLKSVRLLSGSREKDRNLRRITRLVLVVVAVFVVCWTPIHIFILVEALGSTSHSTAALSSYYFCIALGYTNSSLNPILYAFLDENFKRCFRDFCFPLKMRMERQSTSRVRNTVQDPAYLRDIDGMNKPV
T5 sequence (P35462 whole entry): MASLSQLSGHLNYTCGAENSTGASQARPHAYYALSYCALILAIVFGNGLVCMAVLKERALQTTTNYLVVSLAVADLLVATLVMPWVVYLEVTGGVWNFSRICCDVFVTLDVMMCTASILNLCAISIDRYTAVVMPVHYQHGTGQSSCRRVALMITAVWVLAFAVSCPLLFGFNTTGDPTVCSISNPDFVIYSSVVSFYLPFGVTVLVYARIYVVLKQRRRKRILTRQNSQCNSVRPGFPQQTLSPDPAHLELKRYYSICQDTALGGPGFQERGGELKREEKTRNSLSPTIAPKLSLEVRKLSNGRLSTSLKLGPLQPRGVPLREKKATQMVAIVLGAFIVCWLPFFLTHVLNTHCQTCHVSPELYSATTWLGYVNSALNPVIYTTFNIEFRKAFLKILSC
T2 sequence (P14416 whole entry): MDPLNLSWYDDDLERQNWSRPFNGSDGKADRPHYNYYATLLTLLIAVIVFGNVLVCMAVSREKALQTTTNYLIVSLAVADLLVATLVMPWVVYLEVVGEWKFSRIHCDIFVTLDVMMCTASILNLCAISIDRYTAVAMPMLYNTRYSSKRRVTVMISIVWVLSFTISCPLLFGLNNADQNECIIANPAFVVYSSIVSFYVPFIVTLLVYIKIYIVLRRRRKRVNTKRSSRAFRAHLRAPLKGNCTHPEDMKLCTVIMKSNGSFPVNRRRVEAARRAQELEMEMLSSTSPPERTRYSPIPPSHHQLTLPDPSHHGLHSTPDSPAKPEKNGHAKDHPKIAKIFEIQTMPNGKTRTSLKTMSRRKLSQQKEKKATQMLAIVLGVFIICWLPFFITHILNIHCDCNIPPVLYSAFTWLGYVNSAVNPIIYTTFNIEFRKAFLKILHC
T6 sequence (P08908 whole entry): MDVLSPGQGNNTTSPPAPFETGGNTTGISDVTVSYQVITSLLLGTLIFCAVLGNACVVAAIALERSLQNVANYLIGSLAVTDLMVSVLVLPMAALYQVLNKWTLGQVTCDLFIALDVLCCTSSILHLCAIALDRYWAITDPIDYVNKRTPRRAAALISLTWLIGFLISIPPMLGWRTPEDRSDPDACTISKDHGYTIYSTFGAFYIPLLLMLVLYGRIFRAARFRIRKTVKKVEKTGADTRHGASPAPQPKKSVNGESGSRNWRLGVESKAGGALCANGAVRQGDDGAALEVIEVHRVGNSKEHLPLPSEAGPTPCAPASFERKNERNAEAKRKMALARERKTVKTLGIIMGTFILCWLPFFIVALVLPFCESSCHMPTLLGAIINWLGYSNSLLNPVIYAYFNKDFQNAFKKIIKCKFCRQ

With `CC(C)(C)OC(=O)NCCCCCCCC#Cc1ccc2c(c1)C=C([N+](=O)[O-])C(C(F)(F)F)O2` (stereo not drawn) [Compound 30, tert-Butyl (9-(3-nitro-2-(trifluoromethyl)-2H-chromen-6-yl)non-8-yn-1-yl)carbamate] the Ki ([1]; PDSP, mean, n = 2, read-out: Ki, κ-opioid) was 2200 nM, the Ki ([1]; Table S2, single determination, read-out: Ki (nM), KOR) was 1400 nM and the Ki [2] was over 10000 nM. The “off-target interactions at 45 target sites” value [3] was “seven off-target interactions”, the Ki [4] was 630 nM and 366 nM and the IC50 ([5]; CHO-hP2Y14, competitive binding, flow cytometer) was 21.4 ± 5.8 µM. The “fold selective compared to the hP2Y14R” value ([5]; hP2Y6R vs hP2Y14R) was 132 fold, the Ki [6] was over 10000 nM and the Ki [7] was over 10000 nM.

From article PMC11352859, “Functionalized Congeners of 2H-Chromene P2Y6 Receptor Antagonists” (Cells, 2024)
